Measured values from paper PMC5522996, “Big conductance calcium‐activated potassium channel openers control spasticity without sedation” (British Journal of Pharmacology, 2017).

Experiments:
[1] = target: CYP450 2A6 (Homo sapiens, UniProt P11509); test: CYP450 inhibition of substrate binding
Description: IC50 Inhibition of substrate binding
(§3) Inhibition of binding of either 3-cyano-7-ethoxycoumarin, dibenzylfluorescein or 7-benzyoxy-4-
(§4) (trifluoromethyl) coumarin in human enzyme transfected BTI NN-5B1-4 cells or Sf9 insect cells or
(§5) inhibition of dextromethorphan substrate to CYP450 2D6 in liver microsomes.

[2] = target: CYP450 2B6 (Homo sapiens, UniProt P20813)
Description: IC50 Inhibition of substrate binding
as §3, §4, §5

[3] = test system: ABH mice; test: Open‐field activity monitoring (hypomotility); type: in vivo, mouse; conditions: 1 mg·kg^−1 i.v., 30 min after administration
Procedure: Motor activity was assessed using 27.9 × 27.9 cm open field activity monitor chambers and computer software (Med Associates Inc, St. Albans, VT, USA.). This was typically performed in a darkened room. Recordings were initiated once the mouse entered the chamber and continued for 5 min. These chambers, allowing four simultaneous recordings of individual mice and were fitted with infrared beams that could detect movement in the X, Y planes. The total distance travelled (cm) was recorded. Results are expressed as mean ± SEM. These were analysed by Student's paired t‐test or a one‐way ANOVA with Bonferroni post hoc test, using SigmaStat V3/Sigmaplot V9 or V11 software (Systat Ltd Hounslow, UK. Al‐Izki et al., 2012).

[4] = test system: mouse vas deferens; test: Electrically‐evoked contraction of the mouse vas deferens; type: cell-based; conditions: for EC50: Mus musculus, read-out: EC50, inhibition of electrically‐evoked contraction
Procedure: Vasa deferentia were obtained from outbred MF‐1 mice and mounted vertically in a 4 mL organ bath at an initial tension of 0.5 g. The baths contained Mg^2+‐free Krebs solution (NaCl 118.2 mM, KCl 4.75 mM, KH2PO4 1.19 mM, NaHCO3 25.0 mM, glucose 11.0 mM and CaCl2·6H2O 2.54 mM), which was kept at 35–36°C and bubbled with 95% O2 and 5% CO2. […] Contractions were monitored by a computer using a data recording and analysis system as described previously (Ross et al., 2001). After placement in an organ bath, each tissue was subjected to a stimulation‐free period of 10 min and then stimulated for 10 min. Tissues were then subjected to alternate periods of stimulation (5 min) and rest (10 min) until consistent twitch amplitudes were obtained. This equilibration procedure was followed by a stimulation‐free period of 25 min. Tissues were then stimulated for 5 min after which the first agonist addition was made and stimulation continued until the end of the experiment.

[5] = test system: CB1 receptor‐deficient ABH mice; test: Spasticity in CB1 receptor‐deficient mice; type: in vivo, mouse; conditions: 5 mg·kg^−1 i.v., 30 min (Figure 5A)
[6] = test system: spastic ABH mice with EAE; test: Spasticity: resistance to hindlimb flexion against a strain gauge
[7] = test system: ABH mice; test: Temperature testing (hypothermia); type: in vivo, mouse
Procedure: These recordings were assessed 20 min following administration of compounds. Results are expressed as mean ± SEM, and were analysed by Student's t‐test or a one‐way ANOVA with Bonferroni post hoc test using Sigma/StatV3/Sigmpaplot V9 or V11 software (Pryce et al., 2014).

[8] = test system: mice; test: Visible sedation, behaviour and tolerability in mice; conditions: 1 mg·kg^−1 i.v.
[9] = test system: rat mesenteric artery; parameters: method as in Hoi et al., 2007; conditions: ref Hoi et al., 2007; read-out: EC50, vasorelaxation of rat mesenteric arteries; cited from earlier work
[10] = Plasma, brain and spinal cord levels in ABH mice with spastic EAE; type: in vivo, mouse; conditions: after 5 mg·kg^−1 p.o. VSN16R, ABH mice with spastic EAE
Procedure: (§1) The stability of compounds when subjected to hepatic and plasma degradation was assessed in vitro by Inpharmatica, Cambridge, UK. Compounds (1 μM) were incubated with either pooled mouse liver microsomes (0.1 mg protein mL^−1) or pooled mouse plasma at 37°C for 0, 5, 10, 20 and 40 min before termination with acetonitrile containing warfarin as an analytical internal standard. Samples were centrifuged, and the resultant supernatant analysed for parent compound. The mass responses at baseline were taken as the 100% reference values against which the disappearance of the compound was measured. The natural log of the % remaining values was used to generate linear plots of disappearance of the compounds. Half‐life values were calculated from the slope of these plots. Hepatocyte metabolism was assessed by Cyprotex, Macclesfield, and 10 μM VSN16R was incubated with primary mouse, rat, monkey (Macaque) and human hepatocytes for 1 h, and the presence of metabolites was assessed using liquid […] mass spectroscopy. The stability of VSN16R was assessed in vivo by Inpharmatica, Cyprotex and Charles Rivers, Cambridge. Blood (plasma) samples were obtained prior to and 5 min to 24 h after drug administration of 2–5 mg·kg^−1 i.v. or 5 mg·kg^−1 p.o. VSN16R into outbred mice and rats (n = 3 per time point). In addition, plasma, brain and spinal cord samples were obtained from ABH with spastic EAE. Immediately after blood collection, the brain and spinal cord were removed and then stored at −20°C prior to assay. Tissue samples were weighed, homogenized and centrifuged, and the lysates generated. Brain lysates and plasma were assayed by LC–MS methods by Inpharmatica/Charles Rivers, Cambridge, UK. This was also performed using a Waters Xevo TQ or API4000, AB Sciex mass spectrometer using spiked samples as standards. PK Solutions Software (Summit Research Services, Montrose, CO, USA), AB Sciex Analyst software combined with Thermo Fisher Scientific Watson LIMS processing and reporting software or WinNonLin pharmacokinetic or PK solutions 2.0 software (Summit Research Services, Montrose CO, USA) were used to produce PK parameters. Data are expressed as mean ± SEM. The detection limit of VSN16R was 2 ng·mL^−1 in plasma and brain and 14 ng·mL^−1 in spinal cords. The detection limit of VSN22R was 2 ng·mL^−1 in plasma and 0.1 ng·mL^−1 for VSN44R in plasma. Pharmacokinetics in toxicological samples in rats (n = 6 per group), dogs (n = 6 per group) and humans (n = 6 per group) were performed by Charles Rivers (Edinburgh, UK).

[11] = target: T1, BKCa channel (Homo sapiens, UniProt Q12791+Q86W47); test: Single‐channel inside‐out patch clamp, EA.hy926 cells; type: cell-based; conditions: 3 μM, inner surface of membrane, 40 mV, 0.3 μM free Ca^2+
T1 construct: host or cells: EA.hy926 endothelial cells
T1 sequence (Q12791 whole entry): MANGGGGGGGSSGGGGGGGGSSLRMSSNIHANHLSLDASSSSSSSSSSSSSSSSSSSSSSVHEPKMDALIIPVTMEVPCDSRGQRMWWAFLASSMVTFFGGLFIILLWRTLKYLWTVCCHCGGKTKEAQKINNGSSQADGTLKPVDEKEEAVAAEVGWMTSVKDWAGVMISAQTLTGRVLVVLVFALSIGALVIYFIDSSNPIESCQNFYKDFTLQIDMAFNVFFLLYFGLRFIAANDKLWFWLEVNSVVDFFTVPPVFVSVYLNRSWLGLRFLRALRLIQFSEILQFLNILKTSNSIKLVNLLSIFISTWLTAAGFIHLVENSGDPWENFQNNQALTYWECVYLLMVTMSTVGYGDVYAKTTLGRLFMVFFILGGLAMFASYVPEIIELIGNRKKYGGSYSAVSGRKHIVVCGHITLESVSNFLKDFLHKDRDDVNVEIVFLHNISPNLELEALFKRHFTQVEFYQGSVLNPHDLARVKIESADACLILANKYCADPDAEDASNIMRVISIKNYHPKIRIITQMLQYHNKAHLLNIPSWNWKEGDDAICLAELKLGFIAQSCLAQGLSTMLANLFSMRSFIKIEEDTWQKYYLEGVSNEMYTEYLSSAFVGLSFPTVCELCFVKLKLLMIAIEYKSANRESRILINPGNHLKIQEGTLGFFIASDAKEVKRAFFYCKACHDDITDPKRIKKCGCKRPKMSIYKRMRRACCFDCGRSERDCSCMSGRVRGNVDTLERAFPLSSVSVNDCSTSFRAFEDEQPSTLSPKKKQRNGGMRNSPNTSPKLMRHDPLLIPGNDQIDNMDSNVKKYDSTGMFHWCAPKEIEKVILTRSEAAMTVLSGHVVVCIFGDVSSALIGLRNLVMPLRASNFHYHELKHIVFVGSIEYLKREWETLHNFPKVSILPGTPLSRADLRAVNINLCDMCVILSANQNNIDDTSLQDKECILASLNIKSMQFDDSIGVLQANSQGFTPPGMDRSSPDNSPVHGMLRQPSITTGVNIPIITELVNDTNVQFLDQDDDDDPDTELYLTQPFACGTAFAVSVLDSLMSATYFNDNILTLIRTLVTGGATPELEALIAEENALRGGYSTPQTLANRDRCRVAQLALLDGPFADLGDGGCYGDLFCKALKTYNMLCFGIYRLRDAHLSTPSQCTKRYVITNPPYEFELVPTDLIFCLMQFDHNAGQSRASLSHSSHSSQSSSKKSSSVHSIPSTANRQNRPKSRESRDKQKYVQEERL
T1 sequence (Q86W47 whole entry): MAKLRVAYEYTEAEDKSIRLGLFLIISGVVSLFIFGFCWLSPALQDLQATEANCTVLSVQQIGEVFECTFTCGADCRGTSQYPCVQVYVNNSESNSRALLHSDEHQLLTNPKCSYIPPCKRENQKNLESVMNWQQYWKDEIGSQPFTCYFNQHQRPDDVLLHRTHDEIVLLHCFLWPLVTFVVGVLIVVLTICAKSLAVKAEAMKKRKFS
Procedure: The human EA.hy926 endothelial cells (ATCC, Manassas, USA) were grown in DMEM containing 10% FCS and 1% HAT (5 mM hypoxanthine, 20 μM aminopterin and 0.8 mM thymidine) and were maintained in an incubator at 37°C in 5% CO2 atmosphere (Bondarenko et al., 2013). Human HNC‐2 neuronal cells were obtained from ATCC. For experiments, cells were plated on glass coverslips. Single‐channel recordings were obtained from excised inside‐out membrane patches in symmetrical solutions using the patch‐clamp technique. All patch‐clamp experiments were performed at room temperature with the use of a water hydraulic micromanipulator (WR‐6, Narishige, Japan). […] The pipettes were filled with 140 mM KCl, 10 mM HEPES, 1 mM MgCl2, 5 mM EGTA and […] CaCl2 buffered to pH 7.2 by adding KOH. Cells were super‐perfused with a bath solution containing 140 mM NaCl, 5 mM KCl, 1.2 mM MgCl2, 10 mM HEPES, 10 mM glucose and 2.4 mM CaCl2. Following gigaseal formation, bath solution was switched to the following: 140 mM KCl, 10 mM HEPES, 1 mM MgCl2, 5 mM EGTA and a designated free Ca^2+ concentration, which was adjusted by adding different amounts of CaCl2 buffered to pH 7.2. (Bondarenko et al., 2011; Bondarenko et al., 2013). Single‐channel activity was expressed as NPo, where N represents the number of functional ion channels in the membrane patch and Po represents the open channel probability determined from idealized traces (Bondarenko et al., 2011). NPo was obtained from ≥20 s of continuous recording under each experimental condition. The effect of VSN16R was estimated after 3 min of continuous exposure to VSN16R‐containing solution. Data were analysed by ANOVA, and statistical significance was evaluated using Scheffés post hoc test of the Prism 5 software for Windows (GraphPad Software).

[12] = Phase I pharmacokinetics in healthy humans; type: in vivo, human; conditions: male, human, plasma, oral; twice daily dosing of VSN16R; read-out: Steady‐state plasma levels
Procedure: as §1, with “cords.” for “cords. The detection limit of VSN22R was 2 ng·mL^−1 in plasma and 0.1 ng·mL^−1 for VSN44R in plasma. Pharmacokinetics in toxicological samples in rats (n = 6 per group), dogs (n = 6 per group) and humans (n = 6 per group) were performed by Charles Rivers (Edinburgh, UK).”

[13] = Stability in pooled mouse plasma; type: in vitro ADME; conditions: 37°C, upper limit 100 min, read-out: t ½ in plasma
Procedure: (§2) The stability of compounds when subjected to hepatic and plasma degradation was assessed in vitro by Inpharmatica, Cambridge, UK. Compounds (1 μM) were incubated with either pooled mouse liver microsomes (0.1 mg protein mL^−1) or pooled mouse plasma at 37°C for 0, 5, 10, 20 and 40 min before termination with acetonitrile containing warfarin as an analytical internal standard. Samples were centrifuged, and the resultant supernatant analysed for parent compound. The mass responses at baseline were taken as the 100% reference values against which the disappearance of the compound was measured. The natural log of the % remaining values was used to generate linear plots of disappearance of the compounds. Half‐life values were calculated from the slope of these plots. Hepatocyte metabolism was assessed by Cyprotex, Macclesfield, and 10 μM VSN16R was incubated with primary mouse, rat, monkey (Macaque) and human hepatocytes for 1 h, and the presence of metabolites was assessed using liquid […] mass spectroscopy. The stability of VSN16R was assessed in vivo by Inpharmatica, Cyprotex and Charles Rivers, Cambridge. Blood (plasma) samples were obtained prior to and 5 min to 24 h after drug administration of 2–5 mg·kg^−1 i.v. or 5 mg·kg^−1 p.o. VSN16R into outbred mice and rats (n = 3 per time point). […] Data are expressed as mean ± SEM. […]

[14] = test system: rat mesenteric artery; test: Methoxamine‐evoked contraction of rat mesenteric artery; type: cell-based; conditions: 200 µM
Procedure: Vessels were equilibrated and set to a basal tension of 2 to 2.5 mN. The integrity of the endothelium was assessed by pre‐contracting the vessel with 10 μM methoxamine (an α1‐adrenoceptor agonist), followed by relaxation with 10 μM carbachol (a muscarinic acetylcholine receptor agonist); vessels showing relaxations of greater than 90% were designated as endothelium‐intact. When the endothelium was not required, it was removed by rubbing the intima with a human hair; carbachol‐induced relaxation of less than 10% indicated successful removal. After the test for endothelial integrity, vessels were left for 30 min and then pre‐contracted with 10 μM methoxamine. This was followed by construction of a cumulative concentration–relaxation curve to VSN16R (10 nM–1 μM). […] Most experiments were performed in matched vessels; effects of blockers or endothelial removal were compared with the control responses obtained in separate vessels of the same rats. All relaxant responses are expressed as percentage relaxation of the tone induced by methoxamine. Values are given as mean ± SEM. Statistical comparisons of concentration‐dependent responses were made by two‐way ANOVA using Prism 4 (GraphPad Software, Inc, San Diego, CA, USA).

[15] = test system: BKCa channels; parameters: method as in Denson DD et al. Brain Res 638:61; conditions: ref Denson DD et al. Brain Res 638:61; read-out: EC50, inhibition of inside-out current of BKCa channels; cited from earlier work
[16] = Stability in pooled mouse liver microsomes; type: in vitro ADME; conditions: microsomes, 37°C, upper limit 100 min, read-out: t ½ in liver microsomes
Procedure: as §2

CYP450 2A6, sequence (P11509 whole entry): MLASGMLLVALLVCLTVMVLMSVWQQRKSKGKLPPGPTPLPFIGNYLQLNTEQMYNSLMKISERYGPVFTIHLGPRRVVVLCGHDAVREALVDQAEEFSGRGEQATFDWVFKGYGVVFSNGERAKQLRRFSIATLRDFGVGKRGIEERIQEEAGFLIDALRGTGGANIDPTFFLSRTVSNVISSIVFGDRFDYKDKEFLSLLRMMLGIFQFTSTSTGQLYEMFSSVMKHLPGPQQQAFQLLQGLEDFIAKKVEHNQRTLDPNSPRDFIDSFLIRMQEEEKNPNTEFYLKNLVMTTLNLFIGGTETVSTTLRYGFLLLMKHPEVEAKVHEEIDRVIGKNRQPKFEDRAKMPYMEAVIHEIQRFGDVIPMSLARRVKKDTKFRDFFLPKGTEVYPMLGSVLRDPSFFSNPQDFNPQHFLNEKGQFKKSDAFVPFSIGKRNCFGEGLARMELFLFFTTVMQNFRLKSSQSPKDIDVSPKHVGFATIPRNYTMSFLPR
CYP450 2B6, sequence (P20813 whole entry): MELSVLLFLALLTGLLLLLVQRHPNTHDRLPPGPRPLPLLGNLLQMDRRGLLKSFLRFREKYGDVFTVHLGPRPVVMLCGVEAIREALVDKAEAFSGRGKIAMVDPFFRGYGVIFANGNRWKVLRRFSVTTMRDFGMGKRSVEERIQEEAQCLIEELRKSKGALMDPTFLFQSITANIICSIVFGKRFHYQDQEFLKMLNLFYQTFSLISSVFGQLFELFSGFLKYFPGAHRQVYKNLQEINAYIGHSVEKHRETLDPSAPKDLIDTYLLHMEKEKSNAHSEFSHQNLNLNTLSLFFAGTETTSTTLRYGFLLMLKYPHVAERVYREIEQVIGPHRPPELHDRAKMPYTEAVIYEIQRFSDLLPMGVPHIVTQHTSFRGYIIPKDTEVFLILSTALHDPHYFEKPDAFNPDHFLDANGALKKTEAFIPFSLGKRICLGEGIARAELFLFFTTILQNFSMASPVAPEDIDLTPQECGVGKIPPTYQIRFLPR

N[C@@H]1C[C@H]1c1ccccc1 (racemic) [Tranylcypromine, reference compound]
EC50 [1]: 200 nM

CC(=O)N1CCN(c2ccc(OCC3COC(Cn4ccnc4)(c4ccc(Cl)cc4Cl)O3)cc2)CC1 (stereo not drawn) [Ketoconazole, reference compound]
EC50 [2]: 2900 nM

CC(CO)NC(=O)c1cccc(C=CCCCC(=O)N(C)C)c1 (stereo not drawn) [VSN16, 3‐(6‐(dimethylamino)‐6‐oxohex‐1‐enyl)‐N‐(1‐hydroxypropan‐2‐yl)benzamide]
Hypomotility in open field [3]: did not induce | EC50 [4]: ~10 nM | Antagonism of the action by SR141716A ([4]; pre‐incubation of 31.6 nM SR141617A): antagonized | Inhibition of spasticity [5]: significantly inhibit spasticity | Inhibition of spasticity ([6]; 1 mg·kg^−1 i.v., racemate): significantly inhibit spasticity | Hypothermia ([7]; 1 mg·kg^−1 i.v., 20 min after administration): did not induce | Cannabimimetic effects after injection directly into the CNS ([7]; intracerebral (i.c.) route): failed to induce cannabimimetic effects | Visible signs of sedation [8]: failed to induce visible signs of sedation

C[C@@H](CO)NC(=O)c1cccc(/C=C\CCCC(=O)N(C)C)c1 [VSN16S]
EC50 [4]: 37 nM | EC50 [9]: 140 nM

CNC(=O)CCC/C=C\c1cccc(C(=O)N[C@H](C)CO)c1 [VSN22R, (R,Z)‐N‐(1‐hydroxypropan‐2‐yl)‐3‐(6‐(methylamino)‐6‐oxohex‐1‐en‐1‐yl)benzamide]
EC50 [4]: 9 nM | Plasma level of the named species [10]: 106 ± 6.1 ng/mL | Inhibition of spasticity ([6]; 5 mg·kg^−1 i.v.): could inhibit the spasticity | Single BKCa channel activity [11]: facilitated single BKCa channel activity | concentration at 1 week [12]: > 100 nM

CC(=O)Oc1ccc(C(c2ccc(OC(C)=O)cc2)c2ccccn2)cc1 [bisacodyl, reference compound]
half-life at 1 μM [13]: 2 min

CNC1(c2ccccc2Cl)CCCCC1=O (stereo not drawn) [ketamine]
Effect on VSN16R relaxation of methoxamine-evoked contraction [14]: can inhibit the mechanism of action of VSN16R | EC50 [15]: ~25000 nM

Cc1ncc2n1-c1ccc(Cl)cc1C(c1ccccc1F)=NC2 [midazolam, reference compound]
half-life at 1 μM [16]: 17 min
